Data published in patent US20190233884A1 (University of Southern California, priority 2016, published 2019).

System: patients with refractory metastatic colorectal cancer (mCRC)
Test: PFS, OS and disease control in the testing (validation) cohort of refractory mCRC patients receiving TAS-102 (n=129, Italy), by baseline characteristics, SNP genotype and toxicity
Format: in vivo, human
Settings: for HR OS (95% CI) / HR PFS (95% CI): ATM rs609429 Any G vs C/C (Ref.)
Method: All patients underwent the treatment in salvage-line setting. […]
(§1) Genomic DNA was extracted from peripheral whole blood in patients of all cohorts using the QIAmp Kit (Qiagen, Valencia, Calif., USA) according to the manufacturer's protocol (www.qiagen.com). The candidate SNPs were genotyped using PCR-based direct DNA sequence analysis by ABI 3100A Capillary Genetic Analyzer and Sequencing Scanner v1.0 (Applied Biosystems). Amplification of extracted DNA was carried out using both forward and reverse primers for each gene polymorphism as shown in Table 1. […] The investigators analyzing SNPs were blinded to the clinical data of the study patients.
The primary endpoint in this study was progression-free survival (PFS), and the secondary endpoints were overall survival (OS) and disease control rate (DCR). PFS was calculated from the date of starting treatment to the first observation of disease progression or death from any cause. If a patient had no disease progression or death, PFS was censored at the date of last follow up. OS was calculated from the date of starting treatment until the date of death from any cause or the date of the last follow-up, at which point OS was censored. The disease control rate (DCR) was defined as the proportion of patients who achieved a stable disease (SD) or […] according to RECISTv1.1. Chi-square test was used to examine the difference in baseline patient characteristics among the three cohorts. Allelic distribution of all SNPs by ethnicity for deviation from Hardy-Weinberg equilibrium and the allelic frequencies of SNPs were tested using the Chi-square tests with one degree of freedom. The associations between candidate SNPs and disease control, and toxicities were examined using contingency tables and Fisher's exact test. The associations of SNPs with PFS and OS were analysed using Kaplan-Meier curves and the log-rank test. Because the true mode of inheritance of candidate SNPs was not established yet, a codominant or dominant genetic model if appropriate was considered.
All patients underwent the treatment in salvage-line setting. […] In all patients, adverse events were graded according to the Common Terminology Criteria for Adverse Events, version 4.0. […]
as §1, with “tested” for “genotyped”, “Biosystems).” for “Biosystems). Amplification of extracted DNA was carried out using both forward and reverse primers for each gene polymorphism as shown in Table 1.”, “data.” for “data of the study patients.”
The primary endpoint in this study was progression-free survival (PFS), and the secondary endpoints were overall survival (OS) and disease control rate (DCR).

[1] = testing cohort, hENT1 rs750370 A/A
[2] = testing cohort, hENT1 rs750370 A/G
[3] = testing cohort, hENT1 rs750370 A/G vs A/A
[4] = testing cohort, hENT1 rs750370 Any G
[5] = testing cohort, hENT1 rs750370 Any G vs A/A
[6] = testing cohort, hENT1 rs750370 G/G
[7] = testing cohort, hENT1 rs750370 G/G vs A/A
[8] = testing cohort, hENT1 rs760370, multivariable adjusted for age group, liver metastasis, ECOG, previous anti-EGFR
[9] = testing cohort, hENT1 rs760370 A/A
[10] = testing cohort, hENT1 rs760370 any G allele
[11] = testing cohort, hENT1 rs760370 any G vs A/A, univariate
[12] = testing cohort, hENT1 rs9394992 Any T
[13] = testing cohort, hENT1 rs9394992 Any T vs C/C
[14] = testing cohort, hENT1 rs9394992 C/C
[15] = testing cohort, hENT1 rs9394992 C/T
[16] = testing cohort, hENT1 rs9394992 C/T vs C/C
[17] = testing cohort, hENT1 rs9394992 T/T
[18] = testing cohort, hENT1 rs9394992 T/T vs C/C
[19] = testing cohort, hENT1370_OCT019 Excellent
[20] = testing cohort, hENT1370_OCT019 Fair
[21] = testing cohort, hENT1370_OCT019 Fair vs Poor
[22] = testing cohort, hENT1370_OCT019 Good
[23] = testing cohort, hENT1370_OCT019 Good and Excellent combined
[24] = testing cohort, hENT1370_OCT019 Good and Excellent combined vs Poor
[25] = testing cohort, hENT1370_OCT019 Poor
[26] = testing/validation cohort, grade 3≤ neutropenia
[27] = testing/validation cohort, grade 3≤ neutropenia vs less than grade 3
[28] = testing/validation cohort, neutropenia less than grade 3
[29] = validation cohort, ATM rs609429 Any G
[30] = validation cohort, multivariable
[31] = validation cohort, ATM rs609429 C/C

Trifluridine/tipiracil [TAS-102]
Disease Control Rate SD [1]: 9 (20%)
Overall Survival Median, months (95% CI) [1]: 3.9 (3.3, 5.5) months
Progression-free Survival Median, months (95% CI) [1]: 1.9 (1.7, 2.0) months
Disease Control Rate PD [2]: 42 (66%)
Disease Control Rate SD [2]: 22 (34%)
Progression-free Survival Median, months (95% CI) [2]: 2.1 (1.9, 2.5) months
Overall Survival HR (95% CI) multivariate [3]: 0.50 (0.28, 0.89)
Overall Survival HR (95% CI) univariate [3]: 0.48 (0.27, 0.85)
Progression-free Survival HR (95% CI) multivariate [3]: 0.58 (0.37, 0.89)
Progression-free Survival HR (95% CI) univariate [3]: 0.59 (0.38, 0.90)
Disease Control Rate PD [4]: 55 (66%)
Disease Control Rate SD [4]: 28 (34%)
Overall Survival Median, months (95% CI) [4]: 9.0 (5.1, 9.0+) months
Progression-free Survival Median, months (95% CI) [4]: 2.1 (1.9, 2.4) months
Overall Survival HR (95% CI) multivariate [5]: 0.54 (0.31, 0.93)
Overall Survival HR (95% CI) univariate [5]: 0.50 (0.29, 0.86)
Progression-free Survival HR (95% CI) multivariate [5]: 0.65 (0.43, 0.98)
Progression-free Survival HR (95% CI) univariate [5]: 0.64 (0.43, 0.95)
Disease Control Rate PD [6]: 13 (68%)
Disease Control Rate SD [6]: 6 (32%)
Overall Survival Median, months (95% CI) [6]: 9.0 (2.9, 9.0+) months
Progression-free Survival Median, months (95% CI) [6]: 2.0 (1.6, 2.5) months
Overall Survival HR (95% CI) multivariate [7]: 0.78 (0.31, 1.99)
Overall Survival HR (95% CI) univariate [7]: 0.58 (0.24, 1.41)
Progression-free Survival HR (95% CI) multivariate [7]: 1.00 (0.55, 1.80)
Progression-free Survival HR (95% CI) univariate [7]: 0.86 (0.48, 1.55)
HR for OS [8]: 0.54
HR for PFS [8]: 0.65
OS [9]: 3.9 months
PFS [9]: 1.9 months
OS [10]: 9.0 months
PFS [10]: 2.1 months
HR for OS [11]: 0.50
HR for PFS [11]: 0.64
Disease Control Rate PD [12]: 50 (71%)
Disease Control Rate SD [12]: 20 (29%)
Overall Survival Median, months (95% CI) [12]: 5.2 (3.7, 9.0+) months
Progression-free Survival Median, months (95% CI) [12]: 2.0 (1.9, 2.4) months
Overall Survival HR (95% CI) multivariate [13]: 1.19 (0.69, 2.07)
Overall Survival HR (95% CI) univariate [13]: 1.31 (0.76, 2.27)
Progression-free Survival HR (95% CI) multivariate [13]: 0.81 (0.54, 1.19)
Progression-free Survival HR (95% CI) univariate [13]: 0.92 (0.62, 1.35)
Disease Control Rate PD [14]: 41 (71%)
Disease Control Rate SD [14]: 17 (29%)
Overall Survival Median, months (95% CI) [14]: 5.8 (4.7, 8.8+) months
Progression-free Survival Median, months (95% CI) [14]: 2.0 (1.9, 2.1) months
Disease Control Rate PD [15]: 41 (71%)
Disease Control Rate SD [15]: 17 (29%)
Overall Survival Median, months (95% CI) [15]: 4.4 (3.6, 9.0+) months
Progression-free Survival Median, months (95% CI) [15]: 2.0 (1.8, 2.3) months
Overall Survival HR (95% CI) multivariate [16]: 1.23 (0.69, 2.18)
Overall Survival HR (95% CI) univariate [16]: 1.38 (0.78, 2.43)
Progression-free Survival HR (95% CI) multivariate [16]: 0.81 (0.54, 1.22)
Progression-free Survival HR (95% CI) univariate [16]: 0.92 (0.61, 1.38)
Disease Control Rate PD [17]: 9 (75%)
Disease Control Rate SD [17]: 3 (25%)
Progression-free Survival Median, months (95% CI) [17]: 2.5 (0.4, 3.9) months
Overall Survival HR (95% CI) multivariate [18]: 1.02 (0.38, 2.71)
Overall Survival HR (95% CI) univariate [18]: 1.06 (0.40, 2.79)
Progression-free Survival HR (95% CI) multivariate [18]: 0.79 (0.39, 1.58)
Progression-free Survival HR (95% CI) univariate [18]: 0.90 (0.45, 1.78)
Disease Control Rate PD [19]: 38 (64%)
Disease Control Rate SD [19]: 21 (36%)
Disease Control Rate PD [20]: 25 (81%)
Disease Control Rate SD [20]: 6 (19%)
Overall Survival Median, months (95% CI) [20]: 4.0 (3.1, 8.8) months
Progression-free Survival Median, months (95% CI) [20]: 1.9 (1.6, 2.0) months
Overall Survival HR (95% CI) multivariate [21]: 0.58 (0.25, 1.37)
Overall Survival HR (95% CI) univariate [21]: 0.77 (0.34, 1.75)
Progression-free Survival HR (95% CI) multivariate [21]: 1.13 (0.57, 2.24)
Progression-free Survival HR (95% CI) univariate [21]: 1.24 (0.64, 2.40)
Disease Control Rate PD [22]: 17 (71%)
Disease Control Rate SD [22]: 7 (29%)
Overall Survival Median, months (95% CI) [23]: 9.0 (5.1, 9.0) months
Progression-free Survival Median, months (95% CI) [23]: 2.1 (1.9, 2.4) months
Overall Survival HR (95% CI) multivariate [24]: 0.37 (0.17, 0.80)
Overall Survival HR (95% CI) univariate [24]: 0.42 (0.20, 0.90)
Progression-free Survival HR (95% CI) multivariate [24]: 0.71 (0.38, 1.30)
Progression-free Survival HR (95% CI) univariate [24]: 0.73 (0.40, 1.34)
Disease Control Rate PD [25]: 11 (79%)
Disease Control Rate SD [25]: 3 (21%)
Overall Survival Median, months (95% CI) [25]: 3.6 (2.3, 8.5) months
Progression-free Survival Median, months (95% CI) [25]: 2.0 (1.7, 2.4) months
Progression-free Survival Median, months (95% CI) (testing cohort, per OCT2 rs316000 genotype (row), OCT2 rs316000 A/A genotype): 2.0 (1.9, 2.1) months
Progression-free Survival Median, months (95% CI) (testing cohort, per OCT2 rs316000 genotype (row), OCT2 rs316000 A/G genotype): 1.9 (1.7, 2.4) months
Progression-free Survival Median, months (95% CI) (testing cohort, per OCT2 rs316000 genotype (row), OCT2 rs316000 Any G genotype): 1.9 (1.8, 2.6) months
Progression-free Survival Median, months (95% CI) (testing cohort, per OCT2 rs316000 genotype (row), OCT2 rs316000 G/G genotype): 3.7 (1.7, 6.8+) months
OS [26]: 8.8 months
PFS [26]: 2.3 months
HR for OS [27]: 0.21
HR for PFS [27]: 0.50
OS [28]: 3.7 months
PFS [28]: 1.9 months
Disease Control CR/PR/SD, patients n (%) [29]: 26 (33%)
Median PFS (95% CI) [29]: 2.0 (1.9, 2.3) months
PD, patients n (%) [29]: 52 (67%)
HR OS (95% CI) [30]: 0.80 (0.45, 1.41)
HR PFS (95% CI) [30]: 0.85 (0.56, 1.29)
HR OS (95% CI) (validation cohort, univariate): 0.73 (0.43, 1.25)
HR PFS (95% CI) (validation cohort, univariate): 0.78 (0.52, 1.16)
Disease Control CR/PR/SD, patients n (%) [31]: 11 (22%)
Median OS (95% CI) [31]: 4.4 (3.7, 9.0+) months
Median PFS (95% CI) [31]: 1.9 (1.8, 2.3) months
OS [31]: 4.4 months
PD, patients n (%) [31]: 39 (78%)
PFS [31]: 1.9 months
